US20240197815A1, “METHODS AND COMPOSITIONS FOR IMPROVING VISUAL FUNCTION IN OCULAR DISEASES AND DISORDERS” (ONL Therapeutics, Inc., priority 2021, published 2024)
Several values for one entry are separate records, joined by “and”; a condition that tells them apart may be missing. Equal entries are not always repeated. Ends that are not written are not given here.

Columns and labels:
Assay type in all cases: in vivo, human
[1] = test system: patients with retinal detachment; experiment: Clinical study in retinal detachment patients: safety, adverse event reporting
Procedure: (§1) The primary objective was to determine the Maximum Tolerated Dose (MTD) of a peptide an amino acid sequence […] and the structure of Formula III (ONL1204) and select doses for further clinical studies. During the study, ocular fluid samples were also collected at the time of study drug injection and at the time of vitrectomy. These samples were used for pharmacokinetic and pharmacodynamic analyses.
(§2) Patients were enrolled in ascending dose groups. […] Safety visits were conducted one day post-injection and as deemed necessary by the examining Investigator (at least 1 visit every 3 days) until Visit 3. At Visit 3 (3+ days post-injection, in accordance with standard of care) patients underwent surgical repair of their retinal detachment with vitrectomy (with or without scleral buckling) and gas or oil tamponade. At the time of surgery, an undiluted vitreous sample was collected for pharmacokinetic and pharmacodynamics analyses, and an aqueous sample was collected for pharmacodynamic analysis. Additional safety visits were targeted for and generally conducted one day post-surgery, 7 days (±3 days) post-surgery, 14 (+4 days) days post-surgery, and Weeks 6, 9, 12 (±7 days each), and Week 24 (+14 days; study exit).
Planned determinations of dose limiting toxicity included consideration of the following events: • 1.

[2] = test system: patients with retinal detachment; experiment: Clinical study in retinal detachment patients: BCVA after single intravitreal injection followed by vitrectomy; details: for summary statistics for all patients, mean (of the BCVA logMAR values of Table 2): all doses 25-200 ug; for BCVA logMAR study eye / BCVA Snellen study eye: individual patients
Procedure: as §1, §2
Therefore, a volume of 0.05 or 0.1 mL was injected into the study eye. Patient participation was approximately 24 weeks (6 months): a single injection treatment and 24 weeks of follow-up.

ICAM1 = experiment: Change in cytokine level in ocular fluid samples from administration to surgery
Procedure: as §1, §2

IL1RA = experiment: as above
Procedure: as §1, §2

IL18 = experiment: as above
Procedure: as §1, §2

MCP1 = experiment: as above
Procedure: as §1, §2

[3] = test system: patients having macular degeneration characterized by geographic atrophy (GA); experiment: Clinical study in GA patients: best corrected visual acuity (BCVA) after single intravitreal injection; details: all patients receiving 25 ug and 50 ug, compared to baseline BCVA
[4] = 8 patients, 25 ug and 50 ug cohorts
[5] = dose 25 ug (Table 1), individual patients
[6] = dose 50 ug (Table 1), individual patients
[7] = dose 100 ug (Table 1), individual patients
[8] = dose 200 ug (Table 1), individual patient

HHIYLGAVNYIY-NH2 [ONL1204]
patients experiencing adverse events ([1]; 4 patients receiving 25 ug and 4 patients receiving 50 ug): 7 out of 8 | severity and relatedness of adverse events [1, 4]: Most were mild, and study procedure or surgery related | total adverse events [1, 4]: 20 adverse events | summary statistics for all patients, mean (of the BCVA logMAR values of Table 2) ([2]; Week 6, n 14): 0.65 | summary statistics for all patients, mean (of the BCVA logMAR values of Table 2) ([2]; Week 9, n 13): 0.78 | summary statistics for all patients, mean (of the BCVA logMAR values of Table 2) ([2]; Week 24, n 13): 0.56 | visual outcomes ([2]; all patients receiving ONL1204, also with greater than 10 days of central vision loss, 3 to 7 days from administration to surgery, range of detachment heights and extents): improved visual outcomes were observed for all patients | visual outcomes (e.g., visual acuity) ([2]; retinal detachment, all patients receiving 25 ug and 50 ug, intravitreal injection then surgery): improvement in visual outcomes | BCVA logMAR study eye ([2]; week 6, dose 25 ug (Table 1)): 0.34 logMAR and 0.18 logMAR and 0.82 logMAR (2×) | BCVA Snellen study eye ([2]; week 6, dose 25 ug): 20/40 and 20/32 and 20/125 (2×) | BCVA logMAR study eye ([2]; week 6, dose 50 ug (Table 1)): 0.46 logMAR and 0.38 logMAR (2×) and 0.52 logMAR | BCVA Snellen study eye ([2]; week 6, dose 50 ug): 20/50 (2×) and 20/80 | BCVA logMAR study eye ([2]; week 6, dose 100 ug (Table 1)): 0.8 logMAR and 0.7 logMAR and 1 logMAR and 1.6 logMAR | BCVA Snellen study eye ([2]; week 6, dose 100 ug): 20/125 and 20/100 and 20/200 and 20/800 | BCVA logMAR study eye ([2]; week 6, dose 200 ug (Table 1)): 0.4 logMAR and 0.7 logMAR | BCVA Snellen study eye ([2]; week 6, dose 200 ug): 20/50 and 20/100 | BCVA logMAR study eye ([2]; week 9, dose 25 ug (Table 1)): 0.14 logMAR and 0.12 logMAR and 0.64 logMAR and 0.78 logMAR | BCVA Snellen study eye ([2]; week 9, dose 25 ug): 20/25 (2×) and 20/100 and 20/125 | BCVA logMAR study eye ([2]; week 9, dose 50 ug (Table 1)): 0.6 logMAR and 0.56 logMAR and 0.34 logMAR | BCVA Snellen study eye ([2]; week 9, dose 50 ug): 20/80 (2×) and 20/50 | BCVA Snellen study eye ([2]; week 9, dose 100 ug, HM = hand motion): 20/200 and 20/80 and 20/400 | BCVA logMAR study eye ([2]; week 9, dose 200 ug (Table 1)): 0.36 logMAR and 0.6 logMAR | BCVA Snellen study eye ([2]; week 9, dose 200 ug): 20/40 and 20/80 | BCVA logMAR study eye ([2]; week 24, dose 25 ug (Table 1)): 0.5 logMAR and 0.2 logMAR and 0.68 logMAR and 0.7 logMAR | BCVA Snellen study eye ([2]; week 24, dose 25 ug): 20/60 and 20/32 and 20/100 (2×) | BCVA logMAR study eye ([2]; week 24, dose 50 ug (Table 1)): 0.76 logMAR and 0.2 logMAR and 0.64 logMAR and 0.34 logMAR | BCVA Snellen study eye ([2]; week 24, dose 50 ug): 20/125 and 20/32 and 20/80 and 20/50 | BCVA logMAR study eye ([2]; week 24, dose 100 ug (Table 1)): 0.5 logMAR and 0.7 logMAR and 1.3 logMAR and 0.6 logMAR | BCVA Snellen study eye ([2]; week 24, dose 100 ug): 20/63 and 20/100 and 20/400 and 20/80 | BCVA logMAR study eye ([2]; week 24, dose 200 ug (Table 1)): 0.2 logMAR | BCVA Snellen study eye ([2]; week 24, dose 200 ug): 20/32 | change in ICAM level from ONL1204 administration to surgery, mean (ICAM1; all patients of Table 7): mean decrease | ICAM1 Percent Change (%) from time of administering ONL1204 to surgery (ICAM1; [5]): −82.4% and −42.7% and −86.2% | ICAM1 Percent Change (%) from time of administering ONL1204 to surgery (ICAM1; [6]): −100% and 0% and 64.0% | ICAM1 Percent Change (%) from time of administering ONL1204 to surgery (ICAM1; [7]): −43.9% and 24.9% and 22.7% | ICAM1 Percent Change (%) from time of administering ONL1204 to surgery (ICAM1; [8]): 0% | change in IL1RA level from ONL1204 administration to surgery, mean (IL1RA; all patients of Table 7): mean decrease | IL1RA Percent Change (%) from time of administering ONL1204 to surgery (IL1RA; [5]): −51.0% and −57.4% and −99.3% | IL1RA Percent Change (%) from time of administering ONL1204 to surgery (IL1RA; [6]): −94.4% and −88.3% and −60.0% | IL1RA Percent Change (%) from time of administering ONL1204 to surgery (IL1RA; [7]): 8.5% and −46.1% and −65.2% | IL1RA Percent Change (%) from time of administering ONL1204 to surgery (IL1RA; [8]): −26.3% | change in IL18 level from ONL1204 administration to surgery, mean (IL18; all patients of Table 7): mean decrease | IL18 Percent Change (%) from time of administering ONL1204 to surgery (IL18; [5]): −60.5% and −22.5% and −50.8% | IL18 Percent Change (%) from time of administering ONL1204 to surgery (IL18; [6]): −100% and 0% (2×) | IL18 Percent Change (%) from time of administering ONL1204 to surgery (IL18; [7]): −33.7% and 0% and 66.0% | IL18 Percent Change (%) from time of administering ONL1204 to surgery (IL18; [8]): 0% | change in MCP1 level from ONL1204 administration to surgery, mean (MCP1; all patients of Table 7): mean decrease | MCP1 Percent Change (%) from time of administering ONL1204 to surgery (MCP1; [5]): −41.4% and −6.02% and −35.9% | MCP1 Percent Change (%) from time of administering ONL1204 to surgery (MCP1; [6]): −48.4% and 11.6% and −3.12% | MCP1 Percent Change (%) from time of administering ONL1204 to surgery (MCP1; [7]): −9.5% and 78.5% and 500% | MCP1 Percent Change (%) from time of administering ONL1204 to surgery (MCP1; [8]): −2.4% | visual outcomes (e.g., visual acuity) [3]: improvement in visual outcomes
